Data taken from PubChem BioAssay AID330 (DTP/NCI, 2004).
Several values for one entry are separate records, joined by “and”; a condition that tells them apart may be missing. Identical values can stand only once. Toxic doses and inconclusive results are not listed.

Test system: P388 leukemia ip, CD2F1 mice, survival T/C
Test: NCI In Vivo Anticancer Drug Screen. Data for tumor model P388 Leukemia (intraperitoneal) in CD2F1 (CDF1) mice
Settings: endpoint: median survival time, higher = longer survival
Summary of the method: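 Mice carrying the transplanted tumor received test compound or vehicle. Survival was recorded in each group, and the value is the treated-group measurement divided by that of the vehicle-treated control group.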

[1] = dose: 50.0 mg/kg/injection, schedule: Q01DX005 (ip), vehicle: Klucel (hydroxypropylcellulose) (HPC)
[2] = dose: 100.0 mg/kg/injection, schedule: Q01DX005 (ip), vehicle: Klucel (hydroxypropylcellulose) (HPC)
[3] = dose: 200.0 mg/kg/injection, schedule: Q01DX005 (ip), vehicle: Klucel (hydroxypropylcellulose) (HPC)
[4] = dose: 25.0 mg/kg/injection, schedule: Q01DX009 (ip), vehicle: Klucel (hydroxypropylcellulose) (HPC)
[5] = dose: 50.0 mg/kg/injection, schedule: Q01DX009 (ip), vehicle: saline with Tween-80
[6] = dose: 100.0 mg/kg/injection, schedule: Q01DX009 (ip), vehicle: saline with Tween-80
[7] = dose: 200.0 mg/kg/injection, schedule: Q01DX009 (ip), vehicle: saline with Tween-80
[8] = dose: 50.0 mg/kg/injection, schedule: Q01DX005 (ip), vehicle: saline
[9] = dose: 100.0 mg/kg/injection, schedule: Q01DX005 (ip), vehicle: saline
[10] = dose: 200.0 mg/kg/injection, schedule: Q01DX005 (ip), vehicle: saline
[11] = dose: 50.0 mg/kg/injection, schedule: Q01DX009 (ip), vehicle: Klucel (hydroxypropylcellulose) (HPC)
[12] = dose: 100.0 mg/kg/injection, schedule: Q01DX009 (ip), vehicle: Klucel (hydroxypropylcellulose) (HPC)
[13] = dose: 200.0 mg/kg/injection, schedule: Q01DX009 (ip), vehicle: Klucel (hydroxypropylcellulose) (HPC)
[14] = dose: 60.0 mg/kg/injection, schedule: Q01DX005 (ip), vehicle: saline with Tween-80
[15] = dose: 120.0 mg/kg/injection, schedule: Q01DX005 (ip), vehicle: saline with Tween-80
[16] = dose: 240.0 mg/kg/injection, schedule: Q01DX005 (ip), vehicle: saline with Tween-80
[17] = dose: 50.0 mg/kg/injection, schedule: Q01DX005 (ip), vehicle: saline with Tween-80
[18] = dose: 100.0 mg/kg/injection, schedule: Q01DX005 (ip), vehicle: saline with Tween-80
[19] = dose: 200.0 mg/kg/injection, schedule: Q01DX005 (ip), vehicle: saline with Tween-80
[20] = dose: 100.0 mg/kg/injection, schedule: Q01DX001 (ip), vehicle: Klucel (hydroxypropylcellulose) (HPC)
[21] = dose: 200.0 mg/kg/injection, schedule: Q01DX001 (ip), vehicle: Klucel (hydroxypropylcellulose) (HPC)

CCc1nc(N)nc(N)c1-c1ccc(Cl)c(N=[N+]=[N-])c1
T/C (dose: 3.13 mg/kg/injection, schedule: Q01DX009 (ip), vehicle: distilled water + Tween-80): 99 % of control | T/C (dose: 6.25 mg/kg/injection, schedule: Q01DX009 (ip), vehicle: distilled water + Tween-80): 102 % of control | T/C (dose: 12.5 mg/kg/injection, schedule: Q01DX009 (ip), vehicle: distilled water + Tween-80): 107 % of control | T/C (dose: 15.0 mg/kg/injection, schedule: Q01DX005 (ip), vehicle: Klucel (hydroxypropylcellulose) (HPC)): 100 % of control | T/C (dose: 25.0 mg/kg/injection, schedule: Q01DX009 (ip), vehicle: distilled water + Tween-80): 110 % of control and 89 % of control | T/C (dose: 30.0 mg/kg/injection, schedule: Q01DX005 (ip), vehicle: Klucel (hydroxypropylcellulose) (HPC)): 108 % of control | T/C (dose: 50.0 mg/kg/injection, schedule: Q01DX009 (ip), vehicle: distilled water + Tween-80): 109 % of control | T/C (dose: 60.0 mg/kg/injection, schedule: Q01DX005 (ip), vehicle: Klucel (hydroxypropylcellulose) (HPC)): 106 % of control and 116 % of control | T/C (dose: 200.0 mg/kg/injection, schedule: Q01DX009 (ip), vehicle: distilled water + Tween-80): 151 % of control

COC(=O)C1=C(O)C(C(=O)OC)C2C(C(=O)OC)=C(O)C(C(=O)OC)C12 (configuration not stated)
T/C [1]: 97 % of control | T/C [2]: 103 % of control | T/C [3]: 92 % of control

C=CCn1c(=S)sc2ccccc21
T/C (dose: 6.25 mg/kg/injection, schedule: Q01DX009 (ip), vehicle: Klucel (hydroxypropylcellulose) (HPC)): 105 % of control | T/C (dose: 12.5 mg/kg/injection, schedule: Q01DX009 (ip), vehicle: Klucel (hydroxypropylcellulose) (HPC)): 105 % of control | T/C [4]: 104 % of control

FC(F)(F)c1ccc2c(c1)Nc1ccccc1S2
T/C (dose: 12.5 mg/kg/injection, schedule: Q04DX003 (ip), vehicle: Klucel (hydroxypropylcellulose) (HPC)): 100 % of control and 105 % of control | T/C (dose: 25.0 mg/kg/injection, schedule: Q04DX003 (ip), vehicle: Klucel (hydroxypropylcellulose) (HPC)): 103 % of control | T/C (dose: 50.0 mg/kg/injection, schedule: Q04DX003 (ip), vehicle: Klucel (hydroxypropylcellulose) (HPC)): 108 % of control and 109 % of control | T/C (dose: 100.0 mg/kg/injection, schedule: Q04DX003 (ip), vehicle: Klucel (hydroxypropylcellulose) (HPC)): 108 % of control and 118 % of control | T/C (dose: 200.0 mg/kg/injection, schedule: Q04DX003 (ip), vehicle: Klucel (hydroxypropylcellulose) (HPC)): 114 % of control and 116 % of control

Cc1ccc(-c2nc3ccccc3c(=O)n2C(C)C)cc1
T/C [5]: 100 % of control | T/C [6]: 98 % of control | T/C [7]: 87 % of control

CCC12COC3(C)CCC(C)(OC1)N23 (configuration not stated)
T/C [8]: 100 % of control | T/C [5]: 91 % of control | T/C [9]: 100 % of control | T/C [6]: 91 % of control | T/C [10]: 103 % of control | T/C [7]: 98 % of control

O=C1CC2(CCCC2)C(=O)N1c1ccc(O)c(CN2CCCCC2)c1
T/C [11]: 99 % of control | T/C [12]: 104 % of control | T/C [13]: 98 % of control

Nc1ccccc1-c1nc2ccncc2[nH]1
T/C [4]: 102 % of control | T/C [11]: 105 % of control | T/C [12]: 101 % of control | T/C [13]: 100 % of control

CN(C)CCCN1C=CC(=C2C(=O)c3ccccc3C2=O)C=C1
T/C [11]: 88 % of control | T/C [12]: 86 % of control | T/C [13]: 97 % of control

CCCCCC(CN(C)C)C(=O)/C=C/c1ccc(Cl)cc1 (configuration not stated)
T/C (dose: 12.5 mg/kg/injection, schedule: Q01DX009 (ip), vehicle: saline with Tween-80): 95 % of control | T/C (dose: 25.0 mg/kg/injection, schedule: Q01DX009 (ip), vehicle: saline with Tween-80): 96 % of control | T/C [5]: 113 % of control

O=C1c2ccccc2C(=O)N1/N=[N+](\[O-])N1Cc2ccccc2C1
T/C (dose: 25.0 mg/kg/injection, schedule: Q01DX005 (ip), vehicle: Klucel (hydroxypropylcellulose) (HPC)): 97 % of control | T/C [1]: 101 % of control | T/C [2]: 99 % of control | T/C [3]: 99 % of control

O=C(Nc1cc(Nc2ccc(NC(=O)c3ccccc3)c3c2C(=O)c2ccccc2C3=O)cc2c1C(=O)c1ccccc1C2=O)c1ccccc1
T/C [1]: 103 % of control | T/C [2]: 103 % of control | T/C [3]: 97 % of control

COC(=O)C(=O)c1c(-c2ccc(O)c(OC)c2)[nH]c2[nH]n(-c3ccccc3)c(=O)c2c1=O
T/C [14]: 100 % of control | T/C [15]: 109 % of control | T/C [16]: 88 % of control

ClC(Cl)(Cl)C1=NC2=C(Br)C=C(Br)C3=NC(C(Br)(Br)Br)=NC(=N1)N32
T/C (dose: 60.0 mg/kg/injection, schedule: Q01DX005 (ip), vehicle: Klucel + Tween-80): 105 % of control | T/C (dose: 120.0 mg/kg/injection, schedule: Q01DX005 (ip), vehicle: Klucel + Tween-80): 110 % of control

Cc1ccc(C)c(C(=O)/C=C/C(=O)O)c1
T/C (dose: 25.0 mg/kg/injection, schedule: Q01DX005 (ip), vehicle: saline with Tween-80): 114 % of control | T/C [17]: 115 % of control and 117 % of control

CCNC(=O)CCC(NS(=O)(=O)c1ccc(NC(=O)c2ccc(Cl)cc2)cc1)C(=O)O (configuration not stated)
T/C [17]: 107 % of control | T/C [18]: 104 % of control | T/C [19]: 102 % of control

CCNc1ccc2c(c1)C(=O)N(OS(C)(=O)=O)C2=O
T/C [17]: 97 % of control | T/C [18]: 92 % of control

CCCCC(O)c1ccc[n+]([O-])c1 (configuration not stated)
T/C (dose: 50.0 mg/kg/injection, schedule: Q01DX009 (ip), vehicle: saline): 94 % of control | T/C (dose: 100.0 mg/kg/injection, schedule: Q01DX009 (ip), vehicle: saline): 94 % of control | T/C (dose: 200.0 mg/kg/injection, schedule: Q01DX009 (ip), vehicle: saline): 93 % of control

O=[N+]([O-])c1ccc(SC2=NCCN2Cc2ccccc2)c(Cl)c1
T/C [5]: 88 % of control | T/C [6]: 101 % of control | T/C [7]: 94 % of control

Cc1ccc(OP(=O)(Oc2ccc(C)cc2)Oc2ccc(C)cc2)cc1.Cc1ccc(OP(=O)(Oc2ccc(C)cc2)Oc2ccc(C)cc2)cc1.Cc1ccc(OP(=O)(Oc2ccc(C)cc2)Oc2ccc(C)cc2)cc1.Cc1ccc(OP(=O)(Oc2ccc(C)cc2)Oc2ccc(C)cc2)cc1.[Co+2].[O-][Cl+3]([O-])([O-])O
T/C [20]: 99 % of control | T/C [21]: 97 % of control | T/C (dose: 400.0 mg/kg/injection, schedule: Q01DX001 (ip), vehicle: Klucel (hydroxypropylcellulose) (HPC)): 97 % of control

COC(=O)C1C(Sc2ccccc2)CCN1C(C)=O (configuration not stated)
T/C [8]: 88 % of control | T/C [9]: 88 % of control | T/C [10]: 88 % of control

COC(=O)C(C)(OCc1ccccc1)C(C)C1CO1 (configuration not stated)
T/C [17]: 100 % of control | T/C [18]: 115 % of control | T/C [19]: 113 % of control

COC(=O)c1nc2[nH]n(-c3ccccc3)c(=O)c2c(C(=O)OC)c1C(C)C(=O)c1ccc(Cl)cc1 (configuration not stated)
T/C [14]: 96 % of control | T/C [15]: 103 % of control | T/C [16]: 98 % of control

CCS/C(C#N)=C(/Br)c1ccc(OC)cc1
T/C [5]: 98 % of control | T/C [6]: 100 % of control

NS(=O)(=O)c1ncc(C(=O)N2CCN(Cc3ccccc3)CC2)[nH]1
T/C [14]: 103 % of control | T/C [15]: 107 % of control | T/C [16]: 100 % of control

CCN(CC)c1ccc(Cc2ccc(N(CC)CC)c3cccnc23)c2ncccc12
T/C [1]: 100 % of control | T/C [2]: 99 % of control | T/C [3]: 98 % of control

COc1c(CC(C)O)c2c3c(CC(C)O)c(OC)c(=O)c4cc(O)c5c(c6c(c(O)cc(c1=O)c26)OCO5)c43 (configuration not stated)
T/C (dose: 25.0 mg/kg/injection, schedule: Q04DX002 (ip), vehicle: saline with Tween-80): 101 % of control | T/C (dose: 50.0 mg/kg/injection, schedule: Q04DX002 (ip), vehicle: saline with Tween-80): 109 % of control | T/C (dose: 100.0 mg/kg/injection, schedule: Q04DX002 (ip), vehicle: saline with Tween-80): 101 % of control | T/C (dose: 200.0 mg/kg/injection, schedule: Q04DX002 (ip), vehicle: saline with Tween-80): 115 % of control | T/C (dose: 400.0 mg/kg/injection, schedule: Q04DX002 (ip), vehicle: saline with Tween-80): 115 % of control

CSCCC(NC(=O)OCC1c2ccccc2-c2ccccc21)C(=O)O (configuration not stated)
T/C [1]: 103 % of control | T/C [2]: 100 % of control

CCOc1ccc(N=Nc2c(O)n(-c3ccccc3Cl)c(=S)n(-c3ccc(OC)cc3)c2=O)cc1
T/C (dose: 50.0 mg/kg/injection, schedule: Q01DX001 (ip), vehicle: Klucel (hydroxypropylcellulose) (HPC)): 97 % of control | T/C [20]: 102 % of control | T/C [21]: 97 % of control
